In US20250289789A1, “REVERSIBLE LYSINE COVALENT MODIFIERS OF CDK2 AND USES THEREOF” (Terremoto Biosciences, Inc., priority 2023, published 2025) one finds IC50 data, which are given here for 20 compounds.

Common to all, as to assay type: cell-based
In experiment [1] the test system is Phospho-Rb Ser807/811 in OVCAR3 cells. The experiment in a line: OVCAR3 Phospho-Rb Ser807/811 HTRF assay. Particulars: Homo sapiens, read-out: pRb-OVCAR3 IC50. How it is done:
Cells were trypsinized and resuspended in 1 mM hydroxyurea (Sigma; H8627), 90% RPMI and 10% fetal bovine serum. […] Dose response curve normalized to DMSO control was plotted using four-parameter logistic model for IC50 calculation.
For orientation: Time-resolved FRET reads energy transfer from a long-lived donor to a nearby acceptor.

Experiment [2] addresses T1, CDK1-NanoLuc fusion with CCNB1 in 293T or 293 cells (Homo sapiens, UniProt P06493).
T1 construct: host or cells: 293T (ATCC CRL-3216) or 293 (ATCC CRL-1573)
As to the kind of experiment: NanoBRET Target Engagement (TE) Intracellular Kinase Assay, CDK1/CCNB1. Particulars: NanoBRET TE intracellular kinase assay, 2-hour incubation, read-out: NanoBRET-CDK1/B1 IC50. How it is done: Inhibitory effects of compounds were measured in NanoBRET TE Intracellular Kinase Assay. 293T (ATCC; CRL-3216) or 293 (ATCC; CRL-1573) cell lines were maintained in 90% DMEM and 10% fetal bovine serum at 37° C., 5% CO2, and 95% relative humidity. Cells were trypsinized and resuspended in assay media (99% Opti-MEM I Reduced Serum Medium, no phenol red, and 1% fetal bovine serum). Cells were co-transfected with 1 μg/mL of CDK-NanoLuc Fusion Vector (Promega; NV2701 for CDK1, NV2781 for CDK2, NV2811 for CDK4, NV2841 for CDK6) and 1 μg/mL of the corresponding Cyclin Expression Vector (Promega; NV2601 for CCNB1, NV2641 for CCNE1, NV2621 for CCND1, NV2631 for CCND3) using FuGENE HD Transfection Reagent (Promega; E2311). 40 uL/well of cells with transfection mixture were seeded in 384-well plates at 1.25×10^5 to 2×10^5 cells/mL and incubated for 24 hours at 37° C., 5% CO2, and 95% relative humidity. On the next day, 100 nL of 100 μM NanoBRET Tracer K-10 (Promega; N2640) and 40 nL of 1000× test compounds prepared in DMSO were added to the cells in each well of 384-well plates for a 2-hour incubation at 37° C., 5% CO2, and 95% relative humidity. 20 uL/well of 3× Intracellular TE Nano-Glo Substrate/Inhibitor (Promega; N2162) were added to 384-well plates and incubated for 3 minutes at room temperature. NanoBRET signals (donor emission wavelength at 450 nm, acceptor emission wavelength at 610 nm) were measured using Envision plate reader (PerkinElmer). NanoBRET ratio was calculated by: BRET Ratio=raw signal for acceptor/raw signal for donor. Dose response curve normalized to DMSO control was plotted using four-parameter logistic model for IC50 calculation.

Experiment [3] addresses T2, CDK4-NanoLuc fusion with CCND1 in 293T or 293 cells (Homo sapiens, UniProt P11802).
T2 construct: host or cells: 293T (ATCC CRL-3216) or 293 (ATCC CRL-1573)
The experiment in a line: NanoBRET Target Engagement (TE) Intracellular Kinase Assay, CDK4/CCND1. To be noted: NanoBRET TE intracellular kinase assay, 2-hour incubation, read-out: NanoBRET-CDK4/D1 IC50. (In general: Bioluminescence resonance energy transfer reports proximity on the nanometre scale.)

Experiment [4] has as its target T3, CDK2-NanoLuc fusion with CCNE1 in 293T or 293 cells (Homo sapiens, UniProt P24941).
T3 construct: host or cells: 293T (ATCC CRL-3216) or 293 (ATCC CRL-1573)
As to the kind of experiment: NanoBRET Target Engagement (TE) Intracellular Kinase Assay, CDK2/CCNE1. Particulars: NanoBRET TE intracellular kinase assay, 2-hour incubation, read-out: NanoBRET-CDK2/E1 IC50.

[5] abbreviates: OVCAR-3, 1 h, OVCAR3 cells, Phospho-Rb Ser807/811 HTRF, 1 hour incubation.

Structures are written as SMILES. Where two headings read alike, the source gives them in different places.

T2 sequence (P11802 whole entry, the tested form may be a part): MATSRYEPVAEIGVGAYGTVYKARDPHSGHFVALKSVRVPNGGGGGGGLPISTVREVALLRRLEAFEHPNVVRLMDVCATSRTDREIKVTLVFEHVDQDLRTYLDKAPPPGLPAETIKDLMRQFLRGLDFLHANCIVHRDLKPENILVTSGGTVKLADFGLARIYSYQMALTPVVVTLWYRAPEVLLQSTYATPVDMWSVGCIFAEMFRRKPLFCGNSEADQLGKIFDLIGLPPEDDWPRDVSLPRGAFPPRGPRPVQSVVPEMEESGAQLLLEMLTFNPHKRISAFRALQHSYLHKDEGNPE
T2 sequence (P24385 whole entry partner, the tested form may be a part): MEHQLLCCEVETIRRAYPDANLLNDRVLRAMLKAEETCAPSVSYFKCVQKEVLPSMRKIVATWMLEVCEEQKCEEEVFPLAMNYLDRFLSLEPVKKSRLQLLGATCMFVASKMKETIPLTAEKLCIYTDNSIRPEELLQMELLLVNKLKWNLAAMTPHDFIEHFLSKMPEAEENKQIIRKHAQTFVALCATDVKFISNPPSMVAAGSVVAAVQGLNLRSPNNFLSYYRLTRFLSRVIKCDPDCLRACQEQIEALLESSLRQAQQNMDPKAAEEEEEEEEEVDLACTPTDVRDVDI
T1 sequence (P06493 whole entry, the tested form may be a part): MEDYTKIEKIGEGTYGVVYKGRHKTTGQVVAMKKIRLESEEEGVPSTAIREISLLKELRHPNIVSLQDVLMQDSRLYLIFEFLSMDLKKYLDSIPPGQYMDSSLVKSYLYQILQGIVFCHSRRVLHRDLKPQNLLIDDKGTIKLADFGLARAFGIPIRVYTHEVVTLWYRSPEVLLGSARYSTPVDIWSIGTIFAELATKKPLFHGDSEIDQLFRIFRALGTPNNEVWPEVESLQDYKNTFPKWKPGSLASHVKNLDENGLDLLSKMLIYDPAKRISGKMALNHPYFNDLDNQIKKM
T1 sequence (P14635 whole entry partner, the tested form may be a part): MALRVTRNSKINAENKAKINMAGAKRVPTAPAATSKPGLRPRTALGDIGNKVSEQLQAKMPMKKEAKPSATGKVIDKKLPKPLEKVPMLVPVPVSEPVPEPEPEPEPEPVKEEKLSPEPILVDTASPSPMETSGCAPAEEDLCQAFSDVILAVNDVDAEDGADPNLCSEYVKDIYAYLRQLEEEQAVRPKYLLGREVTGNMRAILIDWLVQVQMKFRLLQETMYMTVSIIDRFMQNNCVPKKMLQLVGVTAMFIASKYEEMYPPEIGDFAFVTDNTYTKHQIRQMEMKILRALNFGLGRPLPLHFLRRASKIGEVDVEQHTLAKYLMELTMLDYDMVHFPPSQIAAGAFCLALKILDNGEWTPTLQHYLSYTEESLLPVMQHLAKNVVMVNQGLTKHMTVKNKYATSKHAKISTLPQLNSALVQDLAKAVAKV

Take `CC(C)NC(=O)O[C@@H]1CC[C@H](c2cc(NC(=O)[C@H]3C[C@H](Oc4cccc(O)c4C=O)C3)n[nH]2)C1` (single isomer, unassigned) [Compound 1]: the IC50 in experiment [1] (setting [5]) worked out at 274 nM; in experiment [2], 62.9 nM; in experiment [3] it was 1800 nM; in experiment [4], 7.87 nM.

For `CC(C)NC(=O)O[C@@H]1CC[C@H](c2cc(NC(=O)[C@H]3C[C@@H]3c3cccc(O)c3C=O)n[nH]2)C1` (single isomer, unassigned) [Compound 10], the IC50 came out at 67.6 nM in experiment [1] (setting [5]), 11.3 nM in experiment [2], 1000 nM in experiment [3] and 6.04 nM in experiment [4].

Turning to `COc1cc(O)c(C=O)c([C@H]2C[C@@H]2C(=O)Nc2cc([C@H]3CC[C@@H](OC(=O)NC(C)C)C3)[nH]n2)c1` (single isomer, unassigned) [Compound 90], the IC50 in experiment [1] (setting [5]) was 761 nM; in experiment [2] it was 213 nM; in experiment [3] it was 5100 nM; in experiment [4], 43.8 nM.

As for `CC(C)NC(=O)O[C@@H]1CC[C@H](c2cc(NC(=O)[C@H]3C[C@@H](Oc4cccc(O)c4C=O)C3)n[nH]2)C1` (single isomer, unassigned) [Compound 94], the IC50 worked out at 1440 nM in experiment [1] (setting [5]), 165 nM in experiment [2], 1310 nM in experiment [3] and 9.73 nM in experiment [4].

Consider `CC(C)NC(=O)O[C@@H]1CC[C@H](c2cc(NC(=O)C3C[C@H]3c3cccc(O)c3C=O)n[nH]2)C1` (stereo in doubt) [Compound 9, (1R,3S)-3-{5-[(1R,2R)-2-(2-formyl-3-hydroxyphenyl)cyclopropaneamido]-2H-pyrazol-3-yl}cyclopentyl N-isopropylcarbamate], for which the IC50 in experiment [1] (setting [5]) is 449 nM; in experiment [2] it was 50.3 nM; in experiment [3], 4700 nM; in experiment [4], 29.2 nM.

`COCC1(NC(=O)O[C@@H]2CC[C@H](c3cc(NC(=O)COc4cc(OC)cc(O)c4C=O)n[nH]3)C2)CCC1` (stereo in doubt) [Compound 198]: the IC50 is 38.7 nM in experiment [1] (setting [5]), 7 nM in experiment [2], 3220 nM in experiment [3] and 1.92 nM in experiment [4].

As for `CC(C)NC(=O)O[C@@H]1CC[C@H](c2cc(NC(=O)c3ccc(C=O)c(O)c3)n[nH]2)C1` [Compound 2, (1R,3S)-3-[5-(4-formyl-3-hydroxybenzamido)-2H-pyrazol-3-yl]cyclopentyl N-isopropylcarbamate; trifluoroacetic acid], the IC50 in experiment [1] (setting [5]) was 68 nM; in experiment [2], 3.45 nM; in experiment [3], 89.5 nM; in experiment [4] it was 3.82 nM.

As for `CC(C)NC(=O)O[C@@H]1CC[C@H](c2cc(NC(=O)c3ccc(O)c(C=O)c3)n[nH]2)C1` [Compound 3, (1R,3S)-3-(3-(3-formyl-4-hydroxybenzamido)-1H-pyrazol-5-yl)cyclopentyl isopropylcarbamate trifluoroacetic acid], the IC50 in experiment [1] (setting [5]) was 129 nM; in experiment [2], 32.8 nM; in experiment [3] it was 255 nM; in experiment [4], 9.48 nM.

As to `CC(C)NC(=O)O[C@@H]1CC[C@H](c2cc(NC(=O)Cc3ccc(C=O)c(O)c3)n[nH]2)C1` [Compound 4, (1R,3S)-3-{5-[2-(4-formyl-3-hydroxyphenyl)acetamido]-2H-pyrazol-3-yl}cyclopentyl N-isopropylcarbamate], the IC50 in experiment [1] (setting [5]) came out at 68.8 nM; in experiment [2], 7.08 nM; in experiment [3], 6.91 nM; in experiment [4], 5.47 nM.

For the compound `CC(C)NC(=O)O[C@@H]1CC[C@H](c2cc(NC(=O)Cc3ccc(O)c(C=O)c3)n[nH]2)C1` [Compound 5, (1R,3S)-3-{5-[2-(3-formyl-4-hydroxyphenyl)acetamido]-2H-pyrazol-3-yl}cyclopentyl N-isopropylcarbamate], the IC50 was determined as 187 nM in experiment [1] (OVCAR-3, 1 h); 5.54 nM in experiment [2]; 52.6 nM in experiment [3]; 6.58 nM in experiment [4].

In the case of `CC(C)NC(=O)O[C@@H]1CC[C@H](c2cc(NC(=O)CCc3ccc(O)c(C=O)c3)n[nH]2)C1` [Compound 6, (1R,3S)-3-{5-[3-(3-formyl-4-hydroxyphenyl)propan-amido]-2H-pyrazol-3-yl}cyclopentyl N-isopropylcarbamate; trifluoroacetic acid], the IC50 in experiment [1] (OVCAR-3, OVCAR3 cells, Phospho-Rb Ser807/811 HTRF, 1 hour incubation) came out at 618 nM; in experiment [2], 113 nM; in experiment [3] it was 397 nM; in experiment [4] it was 12.5 nM.

`CC(C)NC(=O)O[C@@H]1CC[C@H](c2cc(NC(=O)CCCc3cccc(O)c3C=O)n[nH]2)C1` [Compound 12, 1R,3S)-3-(3-(4-(2-formyl-3-hydroxyphenyl)butanamido)-1H-pyrazol-5-yl)cyclopentyl isopropylcarbamate]: the IC50 was found to be 126 nM in experiment [2], 1450 nM in experiment [3] and 11.1 nM in experiment [4].

With `CC(C)NC(=O)O[C@@H]1CC[C@H](c2cc(NC(=O)[C@@H]3Cc4ccc(O)c(C=O)c4C3)n[nH]2)C1` [Compound 26, (1R,3S)-3-{5-[(2R)-4-formyl-5-hydroxy-2,3-dihydro-1H-indene-2-amido]-2H-pyrazol-3-yl}cyclopentyl N-isopropylcarbamate], the IC50 in experiment [1] (setting [5]) worked out at 94.5 nM; in experiment [2], 21.7 nM; in experiment [4], 2.78 nM.

Consider `CC(C)NC(=O)O[C@@H]1CC[C@H](c2cc(NC(=O)[C@@H]3Cc4ccc(O)c(C=O)c4C3)n[nH]2)C1` [Compound 256], for which the IC50 in experiment [1] (setting [5]) stood at 68.9 nM; in experiment [2], 20.3 nM; in experiment [4] it was 3.76 nM.

With `CC(C)NC(=O)O[C@@H]1CC[C@H](c2cc(NC(=O)CNc3cccc(O)c3C=O)n[nH]2)C1` [Compound 259], the IC50 was 8060 nM in experiment [2], over 10000 nM in experiment [3] and 649 nM in experiment [4].

Consider `CCN(NC)C(=O)O[C@@H]1CC[C@H](c2cc(NC(=O)COc3cc(OC)cc(O)c3C=O)n[nH]2)C1` [Compound 275, (1R,3S)-3-(3-(2-(2-formyl-3-hydroxy-5-methoxyphenoxy)acetamido)-1H-pyrazol-5-yl)cyclopentyl 1-ethyl-2-methylhydrazine-1-carboxylate], for which the IC50 in experiment [1] (setting [5]) was found to be 35.7 nM; in experiment [3], 5300 nM; in experiment [4] it was 3.11 nM.

Regarding `CCNN(C)C(=O)O[C@@H]1CC[C@H](c2cc(NC(=O)COc3cc(OC)cc(O)c3C=O)n[nH]2)C1` [Compound 276, (1R,3S)-3-(3-(2-(2-formyl-3-hydroxy-5-methoxyphenoxy)acetamido)-1H-pyrazol-5-yl)cyclopentyl 2-ethyl-1-methylhydrazine-1-carboxylate], the IC50 in experiment [1] (setting [5]) was 31.6 nM; in experiment [3] it was over 10000 nM; in experiment [4] it was 5.09 nM.

Take `CCN(CC)N(C)C(=O)O[C@@H]1CC[C@H](c2cc(NC(=O)COc3cc(OC)cc(O)c3C=O)n[nH]2)C1` [Compound 277, (1R,3S)-3-(3-(2-(2-formyl-3-hydroxy-5-methoxyphenoxy)acetamido)-1H-pyrazol-5-yl)cyclopentyl 2,2-diethyl-1-methylhydrazine-1-carboxylate]: the IC50 was found to be 25.6 nM in experiment [1] (setting [5]), 5090 nM in experiment [3] and 1.48 nM in experiment [4].

As to `COc1cc(O)c(C=O)c(OCC(=O)Nc2cc([C@H]3CC[C@@H](OC(=O)N4CCCN4C)C3)[nH]n2)c1` [Compound 278, (1R,3S)-3-(3-(2-(2-formyl-3-hydroxy-5-methoxyphenoxy)acetamido)-1H-pyrazol-5-yl)cyclopentyl 2-methylpyrazolidine-1-carboxylate], the IC50 in experiment [1] (setting [5]) was 95.9 nM; in experiment [3], over 10000 nM; in experiment [4], 4.1 nM.

For the compound `CNN(C)C(=O)O[C@@H]1CC[C@H](c2cc(NC(=O)COc3cc(OC)cc(O)c3C=O)n[nH]2)C1` [Compound 279, (1R,3S)-3-(3-(2-(2-formyl-3-hydroxy-5-methoxyphenoxy)acetamido)-1H-pyrazol-5-yl)cyclopentyl 1,2-dimethylhydrazine-1-carboxylate], the IC50 is 63.9 nM in experiment [1] (setting [5]), over 10000 nM in experiment [3] and 4.32 nM in experiment [4].
